pEC50, pIC50: −log10 of the molar value. Read-outs that look alike come from different tables or passages of the source.
Legend:
[1] = test system: KCa2.2; details: cited from earlier work
[2] = test system: KCa2.3; details: read-out: EC50 KCa2.3 currents; ref Hougaard et al., 2007; cited from earlier work
[3] = test system: cloned KCa3.1 channels; details: cited from earlier work
[4] = test system: KCa2.1; details: ref Hougaard et al., 2007; cited from earlier work
[5] = test system: KCa2/3 channels; details: ref Strøbæk et al., 2004; cited from earlier work
[6] = target: hKCa2.3 (Homo sapiens, UniProt Q9UGI6); test: Whole-cell patch-clamp of KCa2.3 currents; format: cell-based
Sequence of hKCa2.3 (Q9UGI6 whole entry): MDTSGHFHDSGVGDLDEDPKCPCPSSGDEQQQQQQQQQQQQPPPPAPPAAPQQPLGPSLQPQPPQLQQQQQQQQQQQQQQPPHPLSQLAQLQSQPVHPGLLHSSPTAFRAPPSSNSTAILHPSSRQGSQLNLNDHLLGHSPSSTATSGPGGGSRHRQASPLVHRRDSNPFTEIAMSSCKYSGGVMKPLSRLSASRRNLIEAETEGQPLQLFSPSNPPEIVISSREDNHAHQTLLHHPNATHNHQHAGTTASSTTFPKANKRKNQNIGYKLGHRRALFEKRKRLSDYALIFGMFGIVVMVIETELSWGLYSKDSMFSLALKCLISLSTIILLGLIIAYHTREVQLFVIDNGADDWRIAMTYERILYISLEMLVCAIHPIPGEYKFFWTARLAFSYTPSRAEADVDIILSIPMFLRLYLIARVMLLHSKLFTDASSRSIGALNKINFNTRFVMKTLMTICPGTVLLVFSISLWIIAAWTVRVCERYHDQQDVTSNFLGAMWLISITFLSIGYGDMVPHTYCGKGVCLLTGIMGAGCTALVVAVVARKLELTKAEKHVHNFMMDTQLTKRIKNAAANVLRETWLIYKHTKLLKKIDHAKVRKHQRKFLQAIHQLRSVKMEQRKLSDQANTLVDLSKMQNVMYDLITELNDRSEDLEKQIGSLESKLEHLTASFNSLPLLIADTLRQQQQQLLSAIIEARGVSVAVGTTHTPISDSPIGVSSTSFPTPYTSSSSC

For `Cc1cc(NC2CCCCC2)nc(-n2nc(C)cc2C)n1` [CyPPA], the pEC50 ([1]; read-out: EC50 KCa2.2 currents, ref Hougaard et al., 2007) is listed as 4.85, the pEC50 [2] is listed as 5.22 and the “effect on KCa3.1” value ([3]; ref Hougaard et al., 2007) is listed as “no effect”. The “effect on KCa2.1” value [4] was “no effect”.

In the case of `CCn1c(=O)[nH]c2cc(Cl)c(Cl)cc21` [DCEBIO, 5,6-dichloro-EBIO], the pEC50 ([1]; read-out: EC50 KCa2.2, ref Pedarzani et al., 2001) is given as 4.57 and the pEC50 ([3]; read-out: EC50 KCa3.1, ref Singh et al., 2001) is given as 6.12.

For `CCn1c(=O)[nH]c2ccccc21` [EBIO, 1-ethylbenzimidazolin-2-one], the pEC50 ([3]; read-out: EC50 cloned KCa3.1 channels, ref Wulff et al., 2007) is given as 4.52.

In the case of `O=C1Nc2c(ccc(Cl)c2Cl)C1=NO` [NS309, 6,7-dichloro-1H-indole-2,3-dione 3-oxime], the “concentrations activating KCa2 and KCa3.1 channels” value [5] is given as “submicromolar concentrations”.

For `Cl.c1ccc2c(c1)CCC[C@H]2Nc1nc2ccccc2[nH]1` [NS8593, N-[(1R)-1,2,3,4-tetrahydro-1-naphthalenyl]-1H-benzimidazol-2-amine hydrochloride], the pIC50 ([6]; read-out: IC50 inhibition of KCa2.3 currents, absence of SKA-31) was 6.15 and the “shift of IC50 on KCa2.3 by SKA-31” value ([6]; with versus without SKA-31) was “roughly 10 fold”.

Source: article PMC2635097 (Molecular pharmacology, 2008)
